Test results: US12152048B2, “Nitroxoline prodrug and use thereof” (Jiangsu Yahong Meditech Co., Ltd., priority 2018, dated 2024)
Values after ≈ are worked out from the molar mass of the structure shown.

Columns and labels:
[1] = Stability in dog liver microsome; settings: 2 μM, 37° C., 30 minutes
[2] = Stability in rat liver microsome; settings: 2 μM, 37° C., 30 minutes
Method: (§1) Experimental instruments: thermostatic shaker (SHA-B, Guohua Electric Appliance Co., Ltd.); centrifuge (5810R, Eppendorf); mass spectrometry (API4000, Applied Biosystems, USA); liquid chromatography (LC-30AD, Shimadzu); sample injector (CTC Analytics AG System, CTC).
(§2) Experimental process: 25 μg/mL alamethicin (Aldrich), 5 mM magnesium chloride and 0.5 mg/mL microsome (XENOTECH) were added to 100 mM phosphate buffer to obtain a coenzyme-free reaction solution. A portion of the coenzyme-free reaction solution was added with 1 mM reductive nicotinamide adenine dinucleotide phosphate (Aldrich) and 5 mM uridine diphosphate glucuronic acid (Aldrich) to obtain a coenzyme-containing reaction solution. The working solution of the compound of the present invention was added to the two reaction solutions so that the final concentration of the compound was 2 μM. Immediately after mixing well, 50 μL of the solution were taken out as the 0 minute sample, and 50 μL of the remaining sample were taken out after incubating at 37° C. for 30 minutes. All the samples taken out were immediately processed to precipitate protein, and centrifuged to obtain a supernate for the determination of the compound concentration by LC/MS/MS.

[3] = Stability in human liver microsome; settings: 2 μM, 37° C., 30 minutes
Method: as §1, §2

[4] = Stability in human plasma
[5] = Determination of water solubility in phosphate buffer; format: physicochemical; settings: for solubility at 24 h: thermodynamic from solid
From the text: Experimental instruments: 96-well filter plate (MSHVN4510 or MSHVN4550, Millipore); electronic digital display vortex mixer (MS3 Digital, IKA); multi-purpose vacuum pump (circulating water type, SHB-111, Zhengzhou Greatwall Scientific Industrial and Trade Co., Ltd.); balance (XSLT05, Mettler-Toledo); comfortable mixer (Eppendorf AG 22331 Hamburg, Eppendorf); liquid chromatography (LC-3AD, Shimadzu); mass spectrometry (API4000, Applied Biosystems, USA); sample injector (Anylytics AG System, CTC). Nitroxoline was prepared according to the method disclosed in Journal of Heterocyclic Chemistry, 1971, vol. 8, p 821 by Wisdom Pharmaceutical Co., Ltd.
Experimental process: 500 μL of phosphate buffer (pH=1.2, 4.5, 6.8 or 7.4) were added to a glass flask, to which 2 mg of compound powder were added. The flask was sealed with a cap and shaked on a mixer (VORTEX-GENIE2) at room temperature for 24 hours. The solution was subjected to vacuum filtration, and the filtrate was processed to determine the compound concentration by LC/MS/MS.

[6] = Stability in mouse liver microsome; format: in vitro ADME; settings: 2 μM, 37° C., 30 minutes
[7] = Stability in plasma, overall conclusion (species not stated); settings: conclusion in words
Stability in dog plasma = format: in vitro ADME
From the text: (§3) Experimental instruments: thermostatic shaker (SHA-B, Guohua Electric Appliance Co., Ltd.); centrifuge (5810R, Eppendorf); mass spectrometry (AP4000, Applied Biosystems, USA); liquid chromatography (LC-30AD, Shimadzu); sample injector (CTC Analytics AG System, CTC).
(§4) Test animals: plasma of human (batch number: BRH1343165), rat (batch number: RAT336728), mouse (batch number: MSE280000), dog (batch number: BGL99137) and monkey (batch number: PH-Monkey-20180821) are purchased from Shanghai Sixin Biological Technology Co., Ltd.
(§5) Experimental process: the compound of the present invention was dissolved in an organic solvent to obtain a 1 mM working solution. 3 μL of the working solution were added to 597 μL of pre-incubated human or rat plasma and mixed well. 50 μL of the solution were immediately taken out as the 0 minute sample. The remaining sample was incubated at 37° C., and 50 μL of sample were taken out at 15, 30, 60 and 120 minutes respectively. All the samples taken out were immediately processed to precipitate protein, and centrifuged to obtain a supermate for the determination of the compound concentration by LC/MS/MS.

[8] = aqueous buffer, phosphate buffer pH 7.4, room temperature

From the text for Stability in rat plasma: as §3, §4, §5

Percentage of the compound remaining in dog liver microsome ([1]; with coenzyme) [%] | Percentage of the compound remaining in dog liver microsome ([1]; without coenzyme) [%] | Percentage of the compound remaining in rat liver microsome ([2]; with coenzyme) [%] | Percentage of the compound remaining in rat liver microsome ([2]; without coenzyme) [%] | Percentage of the compound remaining in human liver microsome ([3]; with coenzyme) [%] | Percentage of the compound remaining in human liver microsome ([3]; without coenzyme) [%] | Percentage of the compound remaining in plasma ([4]; 0 minute) [%] | Percentage of the compound remaining in plasma ([4]; 37° C., 15 minutes) [%] | Percentage of the compound remaining in plasma ([4]; 37° C., 30 minutes) [%] | Percentage of the compound remaining in plasma ([4]; 37° C., 60 minutes) [%] | Percentage of the compound remaining in plasma ([4]; 37° C., 120 minutes) [%] | solubility at 24 h [5, 8] [µg/mL] | Percentage of the compound remaining in mouse liver microsome ([6]; with coenzyme) [%] | Percentage of the compound remaining in mouse liver microsome ([6]; without coenzyme) [%] | stability in plasma [7] | Percentage of the compound remaining in plasma (Stability in rat plasma; 0 minute) [%] | Percentage of the compound remaining in plasma (Stability in rat plasma; 37° C., 15 minutes) [%] | Percentage of the compound remaining in plasma (Stability in rat plasma; 37° C., 30 minutes) [%] | Percentage of the compound remaining in plasma (Stability in rat plasma; 37° C., 60 minutes) [%] | Percentage of the compound remaining in plasma (Stability in rat plasma; 37° C., 120 minutes) [%] | Structure (SMILES) | also measured
61.38 | 70.31 | 10.77 | 13.97 | 31.49 | 29.40 | 100.0 | 108.6 | 103.3 | 93.4 | 71.9 | 24.4 (≈ 67.3 µM) | 9.85 | 31.90 | high stability | 100.0 | 0.0 | 0.0 | 0.0 | 0.0 | CCC(NC(=O)OCOc1ccc([N+](=O)[O-])c2cccnc12)C(=O)OC (centres unmarked) [Compound 54, methyl 2-(((5-nitroquinolin-8-yloxy)methoxy)formamido)butanoate] | Percentage of the compound remaining in plasma (Stability in dog plasma; 0 minute): 100.0%; Percentage of the compound remaining in plasma (Stability in dog plasma; 37° C., 15 minutes): 100.3%; Percentage of the compound remaining in plasma (Stability in dog plasma; 37° C., 30 minutes): 99.2%; Percentage of the compound remaining in plasma (Stability in dog plasma; 37° C., 60 minutes): 92.4%; Percentage of the compound remaining in plasma (Stability in dog plasma; 37° C., 120 minutes): 74.7%
70.73 | 84.65 | 8.58 | 52.76 | 61.24 | 81.91 | 100.0 | 91.3 | 94.5 | 92.1 | 68.7 | 15.5 (≈ 39.7 µM) | 2.01 | 90.39 | high stability | 100.0 | 48.9 | 24.7 | 5.0 | 0.3 | CCC(C)C(NC(=O)OCOc1ccc([N+](=O)[O-])c2cccnc12)C(=O)OC (centres unmarked) [Compound 55, methyl 3-methyl-2-(((5-nitroquinolin-8-yloxy)methoxy)formamido)pentanoate] | Percentage of the compound remaining in plasma (Stability in dog plasma; 0 minute): 100.0%; Percentage of the compound remaining in plasma (Stability in dog plasma; 37° C., 15 minutes): 99.6%; Percentage of the compound remaining in plasma (Stability in dog plasma; 37° C., 30 minutes): 97.5%; Percentage of the compound remaining in plasma (Stability in dog plasma; 37° C., 60 minutes): 83.3%; Percentage of the compound remaining in plasma (Stability in dog plasma; 37° C., 120 minutes): 70.1%
91.42 | 90.90 | 94.34 | 96.79 | 91.20 | 91.76 | 100.0 | 85.6 | 89.0 | 75.2 | 74.4 | 998 |  |  | high stability | 100.0 | 93.4 | 80.7 | 84.1 | 72.9 | CC(C)(C)OP(=O)(OCOc1ccc([N+](=O)[O-])c2cccnc12)OC(C)(C)C [Compound 70, di-tert-butyl (5-nitroquinolin-8-yloxy)methyl phosphate] | solubility at 24 h ([5]; aqueous buffer, phosphate buffer pH 4.5, room temperature): 843 µg/mL; solubility at 24 h ([5]; aqueous buffer, phosphate buffer pH 6.8, room temperature): 940 µg/mL; water solubility compared with nitroxoline ([5]; conclusion in words): increased by several times; solubility at 24 h ([5]; simulated gastric fluid, phosphate buffer pH 1.2, room temperature): 639 µg/mL
14.94 | 118.35 | 0.45 | 62.17 | 0.12 | 71.66 | 100.0 | 98.9 | 98.2 | 103.6 | 93.2 | 39.8 (≈ 98.2 µM) | 0.44 | 103.05 | high stability | 100.0 | 2.8 | 0.1 | 0.0 | 0.0 | CCC(C)C(C(=O)OC)N(C)C(=O)OCOc1ccc([N+](=O)[O-])c2cccnc12 (centres unmarked) [Compound 56, methyl 3-methyl-2-(methyl(((5-nitroquinolin-8-yloxy)methoxy)formyl)amino)pentanoate] | 

Structure (SMILES) | Percentage of the compound remaining in dog liver microsome ([1]; with coenzyme) [%] | Percentage of the compound remaining in dog liver microsome ([1]; without coenzyme) [%] | Percentage of the compound remaining in rat liver microsome ([2]; with coenzyme) [%] | Percentage of the compound remaining in rat liver microsome ([2]; without coenzyme) [%] | Percentage of the compound remaining in human liver microsome ([3]; with coenzyme) [%] | Percentage of the compound remaining in human liver microsome ([3]; without coenzyme) [%] | Percentage of the compound remaining in plasma ([4]; 0 minute) [%] | Percentage of the compound remaining in plasma ([4]; 37° C., 15 minutes) [%] | Percentage of the compound remaining in plasma ([4]; 37° C., 30 minutes) [%] | Percentage of the compound remaining in plasma ([4]; 37° C., 60 minutes) [%] | Percentage of the compound remaining in plasma ([4]; 37° C., 120 minutes) [%] | solubility at 24 h [5, 8] [µg/mL] | Percentage of the compound remaining in mouse liver microsome ([6]; with coenzyme) [%] | Percentage of the compound remaining in mouse liver microsome ([6]; without coenzyme) [%] | stability in plasma [7] | Percentage of the compound remaining in plasma (Stability in rat plasma; 0 minute) [%] | Percentage of the compound remaining in plasma (Stability in rat plasma; 37° C., 15 minutes) [%] | Percentage of the compound remaining in plasma (Stability in rat plasma; 37° C., 30 minutes) [%] | Percentage of the compound remaining in plasma (Stability in rat plasma; 37° C., 60 minutes) [%] | Percentage of the compound remaining in plasma (Stability in rat plasma; 37° C., 120 minutes) [%] | also measured
COC(=O)CN(C)C(=O)Oc1ccc([N+](=O)[O-])c2cccnc12 [Compound 57, methyl 2-(methyl((5-nitroquinolin-8-yloxy)formyl)amino)acetate] | 0.03 | 75.50 | 23.06 | 44.33 | 0.16 | 0.15 | 100.0 | 99.8 | 93.0 | 76.2 | 60.2 | 138 (≈ 432 µM) | 5.57 | 76.69 | high stability | 100.0 | 0.1 | 0.0 | 0.0 | 0.0 | 
CC(C)OC(=O)[C@H](C)NP(=O)(OCOc1ccc([N+](=O)[O-])c2cccnc12)Oc1ccccc1 (some centres unmarked) [Compound 75] | 12.95 | 48.90 | 0.00 | 0.02 | 1.64 | 6.45 | 100.0 | 98.5 | 94.0 | 87.2 | 65.5 |  |  |  | high stability | 100.0 | 0.0 | 0.0 | 0.0 | 0.0 | Percentage of the compound remaining in plasma (Stability in dog plasma; 0 minute): 100.0%; Percentage of the compound remaining in plasma (Stability in dog plasma; 37° C., 15 minutes): 98.3%; Percentage of the compound remaining in plasma (Stability in dog plasma; 37° C., 30 minutes): 95.6%; Percentage of the compound remaining in plasma (Stability in dog plasma; 37° C., 60 minutes): 80.8%; Percentage of the compound remaining in plasma (Stability in dog plasma; 37° C., 120 minutes): 67.8%
